Key:
TNFα = TNFα (Homo sapiens, UniProt P01375); assay: Immunoassay binding test, TNFa; settings: compounds 100 to 0.78 μM; TNFα 10 ng/ml, receptor 100 ng/ml; read-out: BINDING TNF IC50
How it was run: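 ELISA-type binding test: receptor-coated plates blocked with 2% BSA, then cytokine (six-point dilution series) preincubated 2 h at 37 °C and bound overnight at 4 °C. Detection used biotinylated anti-cytokine antibody and avidin-HRP, read as OD at 450 nm. For IL-6, IL-6Ra was present at 200 ng/ml final.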

TNFa/TNFRI interaction = TNFa/TNFRI interaction (Homo sapiens, UniProt P01375); assay: TNFa/TNFRI interaction displacement test; type: binding; settings: compounds at 50 μM; human TNFRI 100 ng/ml
Sequence of TNFa/TNFRI interaction (P01375 77-233 limits assumed): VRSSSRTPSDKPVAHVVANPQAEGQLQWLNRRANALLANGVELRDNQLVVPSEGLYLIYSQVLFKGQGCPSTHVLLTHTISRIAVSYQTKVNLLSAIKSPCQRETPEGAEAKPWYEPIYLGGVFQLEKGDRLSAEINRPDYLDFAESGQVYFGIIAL
How it was run: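 Plates coated overnight at 4° C with human TNFRI (100 ng/ml) and blocked with 2% BSA, then test mixtures were incubated overnight at 4° C. Bound cytokine detected with biotinylated anti-cytokine antibody (2 h, 37° C) and avidin-HRP, read as OD at 450 nm.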

IL-4 = target: T1, IL-4 (Homo sapiens, UniProt P05112); assay: Immunoassay binding test, IL-4; settings: for IC50: IL-4 400 ng/ml, receptor 100 ng/ml, read-out: BINDING IL4 IC50
T1 sequence (P05112 25-153): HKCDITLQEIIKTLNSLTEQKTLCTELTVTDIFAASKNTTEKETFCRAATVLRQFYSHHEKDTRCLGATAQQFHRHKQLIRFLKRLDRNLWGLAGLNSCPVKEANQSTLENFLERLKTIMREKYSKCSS
How it was run: (§1)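 Compounds (final 100 to 0.78 μM) were preincubated 2 h at 37 °C with a fixed amount of cytokine; for IL-6, IL-6Ra was also present at 200 ng/ml final. Mixtures were then incubated overnight at 4 °C on receptor-coated plates. Bound cytokine was detected with biotinylated anti-cytokine antibody and avidin-HRP, read as OD at 450 nm.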

IL-13 = IL-13 (Homo sapiens, UniProt P35225); assay: Immunoassay binding test, IL-13; settings: for IC50: IL-13 400 ng/ml, receptor 100 ng/ml, read-out: BINDING IL13 IC50
Sequence of IL-13 (P35225 25-146, species assumed): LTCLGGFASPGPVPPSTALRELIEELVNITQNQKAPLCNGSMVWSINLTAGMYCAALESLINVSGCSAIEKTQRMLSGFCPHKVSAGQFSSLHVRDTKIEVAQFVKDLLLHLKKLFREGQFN
How it was run: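 Receptor-coated plates; compounds (100 to 0.78 μM final) preincubated 2 h at 37° C with fixed cytokine, then bound to receptor overnight at 4° C. Bound cytokine detected with biotinylated anti-cytokine antibody and avidin-HRP, OD 450 nm.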

IL-6 = IL-6 (Homo sapiens, UniProt P05231); assay: Immunoassay binding test, IL-6 (gp130 receptor, IL-6Ra present); settings: IL-6Ra 200 ng/ml
Sequence of IL-6 (P05231 30-212, species assumed): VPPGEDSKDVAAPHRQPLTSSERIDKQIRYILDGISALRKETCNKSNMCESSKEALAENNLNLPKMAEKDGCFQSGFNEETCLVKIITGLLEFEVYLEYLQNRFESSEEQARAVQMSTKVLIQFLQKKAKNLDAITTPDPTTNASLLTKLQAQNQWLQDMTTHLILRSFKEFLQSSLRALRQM
How it was run: as §1

Sequence of TNFα (P01375 77-233 limits assumed, species assumed): as the sequence (P01375 77-233 limits assumed) above

| SMILES | IC50 (TNFα) | Displacement (%) (TNFa/TNFRI interaction) | BINDING IL4 % Neutra at 100 μM (IL-4) | IC50 (IL-4) | BINDING IL13 % Neutra at 100 μM (IL-13) | IC50 (IL-13) | BINDING IL6 % Neutra at 100 μM (IL-6) |
| --- | --- | --- | --- | --- | --- | --- | --- |
| O=S(=O)(c1ccccc1)n1cc(CN(CCCCNC2CCCCCC2)Cc2cccnc2F)c2ccccc21 [Compound 73, N′-cycloheptyl-N^4-((2-fluoropyridin-3-yl)methyl)-N^4-((1-(phenylsulfonyl)-1H-indol-3-yl)methyl)butane-1,4-diamine] | 8.4 µM | 161% | 91.0% | 6 µM | 87.2% | 14.9 µM | 0% |
| NS(=O)(=O)NCCCCN(Cc1cccnc1F)Cc1cn(S(=O)(=O)c2ccccc2)c2ccccc12 [Compound 77] | > 50 µM | 35% | 13.7% | > 100 µM | 0% | – | 0% |
| CN(C)S(=O)(=O)NCCCCN(Cc1cccnc1F)Cc1cn(S(=O)(=O)c2ccccc2)c2ccccc12 [Compound 78] | > 50 µM | 11% | 33.5% | > 50 µM | 0% | – | 0% |
| O=S(=O)(NCCCCN(Cc1cccnc1F)Cc1cn(S(=O)(=O)c2ccccc2)c2ccccc12)N1CCCCCC1 [Compound 81] | > 50 µM | 0% | 39.3% | > 50 µM | 0% | – | 1% |
| CN1CCN(C(=O)NCCCCN(Cc2cccnc2F)Cc2cn(S(=O)(=O)c3ccccc3)c3ccccc23)CC1 [Compound 83] | 21 µM | 93% | 84.6% | > 50 µM | 1% | – | 0% |
| CC(=O)NCCCCN(Cc1cccnc1F)Cc1cn(S(=O)(=O)c2ccccc2)c2ccccc12 [Compound 85] | 44.3 µM | 45% | 36.6% | > 100 µM | 0% | – | 3% |
| O=S(=O)(c1ccccc1)n1cc(CN(CCCCN(C2CCC2)C2CCC2)Cc2cccnc2F)c2ccccc21 [Compound 86] | 5 µM | 188% | 92.6% | 4.9 µM | 87.9% | > 50 µM | 6% |
| NCCCCN(Cc1cn(S(=O)(=O)c2ccccc2)c2ccccc12)Cc1cn(S(=O)(=O)c2ccccc2)c2ccccc12 [Compound 87] | 18.8 µM | 28% | 95.5% | 4.4 µM | 94.2% | 8.2 µM | 6% |
| O=S(=O)(c1ccccc1)n1cc(CN(CCCCNCc2cccnc2F)Cc2cn(S(=O)(=O)c3ccccc3)c3ccccc23)c2ccccc21 [Compound 88] | > 50 µM | 5% | 69.0% | 5.3 µM | 8% | – | 9% |
| O=S(=O)(c1ccccc1)n1cc(CN(CCCCNC2CCCCC2)Cc2cn(S(=O)(=O)c3ccccc3)c3ccccc23)c2ccccc21 [Compound 89] | 15 µM | 63% | 95.6% | 2 µM | 94.7% | 2.6 µM | 0% |

Now from value to compound:

| IC50 (TNFα) | Displacement (%) (TNFa/TNFRI interaction) | BINDING IL4 % Neutra at 100 μM (IL-4) | IC50 (IL-4) | BINDING IL13 % Neutra at 100 μM (IL-13) | IC50 (IL-13) | BINDING IL6 % Neutra at 100 μM (IL-6) | SMILES |
| --- | --- | --- | --- | --- | --- | --- | --- |
| 6.6 µM | 160% | 91.9% | 5.7 µM | 87.3% | > 50 µM | 0% | CN(CCCCN(Cc1cccnc1F)Cc1cn(S(=O)(=O)c2ccccc2)c2ccccc12)C1CCCCCC1 [Compound 74, N′-cycloheptyl-N^4-((2-fluoropyridin-^3-yl)methyl)-N′-methyl-N^4-((1-(phenylsulfonyl)-1H-indol-^3-yl)methyl)butane-1,4-diamine] |
| 11.2 µM | 147% | 92.0% | 8.5 µM | 85.8% | > 50 µM | 0% | O=S(=O)(c1ccccc1)n1cc(CN(CCCCNC2CCCCCCC2)Cc2cccnc2F)c2ccccc21 [Compound 75, N′-cyclooctyl-N^4-((2-fluoropyridin-3-yl)methyl)-N^4-((1-(phenylsulfonyl)-1H-indol-3-yl)methyl)butane-1,4-diamine] |
| > 50 µM | 3% | 31.0% | > 100 µM | 0% | – | 1% | CCN(CC)S(=O)(=O)NCCCCN(Cc1cccnc1F)Cc1cn(S(=O)(=O)c2ccccc2)c2ccccc12 [Compound 79] |
| > 50 µM | 0% | 29.1% | > 100 µM | 0% | – | 0% | O=S(=O)(NCCCCN(Cc1cccnc1F)Cc1cn(S(=O)(=O)c2ccccc2)c2ccccc12)N1CCCCC1 [Compound 80] |
| > 50 µM | 18% | 27.9% | > 100 µM | 0% | – | 5% | O=S(=O)(NCCCCN(Cc1cccnc1F)Cc1cn(S(=O)(=O)c2ccccc2)c2ccccc12)N1CCOCC1 [Compound 82] |
| 21.2 µM | 111% | 0% | – | 0% | – | 3% | O=C(NCCCCN(Cc1cccnc1F)Cc1cn(S(=O)(=O)c2ccccc2)c2ccccc12)N1CCOCC1 [Compound 84] |
